The results in this text go back to PubChem BioAssay AID330 (DTP/NCI, 2004).

The structures appear in SMILES notation. Where “and” joins values, the source holds several entries; their conditions need not be identical. Identical values can stand only once. Inconclusive results and toxic doses are left out.

This assay relates to P388 leukemia ip, CD2F1 mice, survival T/C. The assay can be described thus: NCI In Vivo Anticancer Drug Screen. Data for tumor model P388 Leukemia (intraperitoneal) in CD2F1 (CDF1) mice. The note with it: endpoint: median survival time, higher = longer survival. Put shortly:
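Mice carrying the transplanted tumor received test compound or vehicle. Survival was recorded in each group, and the value is the treated-group measurement divided by that of the vehicle-treated control group.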

The mark [1] stands for this setting: dose: 50.0 mg/kg/injection, schedule: Q04DX003 (ip), vehicle: saline.
Setting [2] is: dose: 60.0 mg/kg/injection, schedule: Q01DX005 (ip), vehicle: Klucel (hydroxypropylcellulose) (HPC).
[3] abbreviates: dose: 120.0 mg/kg/injection, schedule: Q01DX005 (ip), vehicle: Klucel (hydroxypropylcellulose) (HPC).
[4] abbreviates: dose: 240.0 mg/kg/injection, schedule: Q01DX005 (ip), vehicle: Klucel (hydroxypropylcellulose) (HPC).
The mark [5] stands for this setting: dose: 60.0 mg/kg/injection, schedule: Q01DX005 (ip), vehicle: saline with Tween-80.
Setting [6] is: dose: 120.0 mg/kg/injection, schedule: Q01DX005 (ip), vehicle: saline with Tween-80.
The mark [7] stands for this setting: dose: 240.0 mg/kg/injection, schedule: Q01DX005 (ip), vehicle: saline with Tween-80.
Where [8] appears, read: dose: 25.0 mg/kg/injection, schedule: Q01DX009 (ip), vehicle: saline with Tween-80.
Setting [9] is: dose: 50.0 mg/kg/injection, schedule: Q01DX009 (ip), vehicle: saline with Tween-80.
Setting [10] is: dose: 100.0 mg/kg/injection, schedule: Q04DX002 (ip), vehicle: Klucel (hydroxypropylcellulose) (HPC).
Where [11] appears, read: dose: 200.0 mg/kg/injection, schedule: Q04DX002 (ip), vehicle: Klucel (hydroxypropylcellulose) (HPC).
Where [12] appears, read: dose: 50.0 mg/kg/injection, schedule: Q01DX009 (ip), vehicle: Klucel (hydroxypropylcellulose) (HPC).
[13] abbreviates: dose: 100.0 mg/kg/injection, schedule: Q01DX009 (ip), vehicle: Klucel (hydroxypropylcellulose) (HPC).
The mark [14] stands for this setting: dose: 200.0 mg/kg/injection, schedule: Q01DX009 (ip), vehicle: Klucel (hydroxypropylcellulose) (HPC).

Take `CN=C(NCCSCc1ccc2ccccc2n1)NS(=O)(=O)c1ccccc1`: the T/C by setting is: (dose: 50.0 mg/kg/injection, schedule: Q01DX005 (ip), vehicle: saline) 106 % of control; (dose: 100.0 mg/kg/injection, schedule: Q01DX005 (ip), vehicle: saline) 106 % of control; (dose: 200.0 mg/kg/injection, schedule: Q01DX005 (ip), vehicle: saline) 100 % of control.
Consider `COc1cccc2c1C(=O)c1c(O)c3c(c(O)c1C2=O)C[C@@](O)(C(=O)CO)CC3OC1CC(O)C(O)C(C)O1` (some centres undefined), for which the T/C reads like this: (dose: 6.25 mg/kg/injection, schedule: Q04DX003 (ip), vehicle: saline) 122 % of control; (dose: 12.5 mg/kg/injection, schedule: Q04DX003 (ip), vehicle: saline) 165 % of control; (dose: 25.0 mg/kg/injection, schedule: Q04DX003 (ip), vehicle: saline) 183 % of control; under setting [1], 209 % of control.
In the case of `Nc1ccc(C2NC(=O)Cc3c2ccc2ccccc32)cc1` (centres undefined), the T/C is 95 % of control under setting [2], 94 % of control under setting [3] and 95 % of control under setting [4].
On to `CC(NC(=O)C(=O)c1c[nH]c2ccccc12)C(=O)O` (centres undefined), for which the T/C was 98 % of control under setting [5], 96 % of control under setting [6] and 103 % of control under setting [7].
Take `NC(=S)N1CCCC1`: the T/C reads like this: under setting [8], 95 % of control; under setting [9], 93 % of control; (dose: 100.0 mg/kg/injection, schedule: Q01DX009 (ip), vehicle: saline with Tween-80) 98 % of control; (dose: 200.0 mg/kg/injection, schedule: Q01DX009 (ip), vehicle: saline with Tween-80) 89 % of control.
For the molecule `CC1CCC(C(C)C)C(NC(=O)c2cccnc2)C1` (centres undefined), the T/C reads like this: (dose: 25.0 mg/kg/injection, schedule: Q04DX002 (ip), vehicle: Klucel (hydroxypropylcellulose) (HPC)) 102 % of control; (dose: 52.0 mg/kg/injection, schedule: Q04DX002 (ip), vehicle: Klucel (hydroxypropylcellulose) (HPC)) 101 % of control; under setting [10], 100 % of control; under setting [11], 103 % of control.
`FC(F)(F)c1nc2nccnc2[nH]1`: the T/C under setting [1] was 100 % of control; the T/C (dose: 100.0 mg/kg/injection, schedule: Q04DX003 (ip), vehicle: saline) is 100 % of control; the T/C (dose: 200.0 mg/kg/injection, schedule: Q04DX003 (ip), vehicle: saline) is 100 % of control.
As for `COc1cc(CCCOC2OC(COC3OCC(O)C(O)C3O)C(O)C(O)C2O)cc2cc(-c3ccc4c(c3)OCO4)oc12` (centres undefined), the T/C was 95 % of control (dose: 2.34 mg/kg/injection, schedule: Q01DX005 (ip), vehicle: Klucel (hydroxypropylcellulose) (HPC)); 94 % of control (dose: 4.68 mg/kg/injection, schedule: Q01DX005 (ip), vehicle: Klucel (hydroxypropylcellulose) (HPC)); 98 % of control (dose: 9.37 mg/kg/injection, schedule: Q01DX005 (ip), vehicle: Klucel (hydroxypropylcellulose) (HPC)); 94 % of control (dose: 18.75 mg/kg/injection, schedule: Q01DX005 (ip), vehicle: Klucel (hydroxypropylcellulose) (HPC)).
As to `CCCCCCc1c(C#N)c(S)[nH]c(=S)c1C#N`, the T/C is 95 % of control (dose: 12.5 mg/kg/injection, schedule: Q01DX009 (ip), vehicle: saline); 106 % of control (dose: 25.0 mg/kg/injection, schedule: Q01DX009 (ip), vehicle: saline); 106 % of control and 96 % of control (dose: 50.0 mg/kg/injection, schedule: Q01DX009 (ip), vehicle: saline).
On to `COc1ccc(NC(=S)N(C)C)cc1`, for which the T/C reads like this: (dose: 100.0 mg/kg/injection, schedule: Q04DX003 (ip), vehicle: saline with Tween-80) 95 % of control; (dose: 200.0 mg/kg/injection, schedule: Q04DX003 (ip), vehicle: saline with Tween-80) 100 % of control; (dose: 400.0 mg/kg/injection, schedule: Q04DX003 (ip), vehicle: saline with Tween-80) 95 % of control.
As for `CCN(CC)CCCC(C)Nc1cc(C)nc2c1ccc1c2ccc2c(NC(C)CCCN(CC)CC)cc(C)nc21` (centres undefined), the T/C (dose: 12.5 mg/kg/injection, schedule: Q01DX009 (ip), vehicle: distilled water + Tween-80) is 118 % of control and the T/C (dose: 25.0 mg/kg/injection, schedule: Q01DX009 (ip), vehicle: distilled water + Tween-80) was 111 % of control.
On to `COC1=CC(=O)C(OC)=C(C2C(=O)N(C)c3ccccc32)C1=O` (centres undefined), for which the T/C is 111 % of control (dose: 7.5 mg/kg/injection, schedule: Q01DX005 (ip), vehicle: saline); 121 % of control (dose: 15.0 mg/kg/injection, schedule: Q01DX005 (ip), vehicle: saline); 117 % of control under setting [5].
As for `CC(=O)N1C=CC(=Cc2ccccc2)C=C1`, the T/C is 98 % of control under setting [12], 98 % of control under setting [13] and 99 % of control under setting [14].
As to `NCCCn1[nH]c(=O)c2cccnc2c1=O`, the T/C reads like this: under setting [5], 101 % of control; under setting [6], 100 % of control; under setting [7], 95 % of control.
Consider `Nc1nc(SCc2ccccc2)sc1C(=O)N1CCCCC1`, for which the T/C by setting is: under setting [12], 100 % of control; under setting [13], 100 % of control; under setting [14], 101 % of control.
For the molecule `C/C(C(=O)NC1CC1)=C(\C)c1ccc(Cl)cc1`, the T/C is 100 % of control (dose: 50.0 mg/kg/injection, schedule: Q04DX002 (ip), vehicle: Klucel (hydroxypropylcellulose) (HPC)); 103 % of control under setting [10]; 102 % of control under setting [11].
For `CSc1nc2cc(S(=O)(=O)C(F)F)ccc2s1`, the T/C was 94 % of control (dose: 6.25 mg/kg/injection, schedule: Q01DX009 (ip), vehicle: Klucel (hydroxypropylcellulose) (HPC)) and 94 % of control (dose: 12.5 mg/kg/injection, schedule: Q01DX009 (ip), vehicle: Klucel (hydroxypropylcellulose) (HPC)).
`O=S(=O)(C(Br)S(=O)(=O)C(F)(F)C(F)(F)C(F)(F)C(F)(F)F)C(F)(F)C(F)(F)C(F)(F)C(F)(F)F`: the T/C by setting is: (dose: 25.0 mg/kg/injection, schedule: Q01DX001 (ip), vehicle: saline) 95 % of control; (dose: 50.0 mg/kg/injection, schedule: Q01DX001 (ip), vehicle: saline) 95 % of control; (dose: 100.0 mg/kg/injection, schedule: Q01DX001 (ip), vehicle: saline) 100 % of control and 101 % of control.
On to `O=S(c1ccccc1)c1ccccc1C(O)(C(F)(F)F)C(F)(F)F` (centres undefined), for which the T/C was 96 % of control under setting [10]; 100 % of control under setting [11]; 101 % of control (dose: 400.0 mg/kg/injection, schedule: Q04DX002 (ip), vehicle: Klucel (hydroxypropylcellulose) (HPC)).
Regarding `COc1ccc2c(CSCCO)cc(=O)oc2c1`, the T/C is, setting by setting: (dose: 50.0 mg/kg/injection, schedule: Q04DX003 (ip), vehicle: suspension in saline) 97 % of control; (dose: 100.0 mg/kg/injection, schedule: Q04DX003 (ip), vehicle: suspension in saline) 100 % of control; (dose: 200.0 mg/kg/injection, schedule: Q04DX003 (ip), vehicle: suspension in saline) 98 % of control.
With `S=c1nn[nH]c2[nH]ncc12`, the T/C is, setting by setting: (dose: 100.0 mg/kg/injection, schedule: Q01DX001 (ip), vehicle: saline with Tween-80) 94 % of control; (dose: 200.0 mg/kg/injection, schedule: Q01DX001 (ip), vehicle: saline with Tween-80) 102 % of control; (dose: 400.0 mg/kg/injection, schedule: Q01DX001 (ip), vehicle: saline with Tween-80) 108 % of control.
Take `Cc1cc2nccc(/C=C/c3ccc(N(C)C)cc3)c2cc1C`: the T/C runs as follows: (dose: 12.5 mg/kg/injection, schedule: Q01DX009 (ip), vehicle: saline with Tween-80) 102 % of control; under setting [8], 110 % of control; under setting [9], 92 % of control.
Turning to `CCOC(=O)C(Cc1ccccc1Cl)(Cc1ccccc1Cl)c1ccccc1`, the T/C runs as follows: (dose: 266.0 mg/kg/injection, schedule: Q01DX009 (ip), vehicle: saline with Tween-80) 98 % of control; (dose: 400.0 mg/kg/injection, schedule: Q01DX009 (ip), vehicle: saline with Tween-80) 111 % of control; (dose: 600.0 mg/kg/injection, schedule: Q01DX009 (ip), vehicle: saline with Tween-80) 96 % of control.
Regarding `CCCNN1CCN(c2ccncc2S(=O)(=O)N2CCCCC2)CC1`, the T/C is 98 % of control under setting [2], 99 % of control under setting [3] and 94 % of control under setting [4].
